From PMC9018117 (The Journal of nutritional biochemistry, 2021)

How the values were obtained:
[1] = test system: 5-LOX translocation in differentiated HL-60 cells; assay: 5-LOX translocation from cytosol to nucleus by western blotting; assay type: cell-based, human; details: 20 μM, 30 min preincubation
[2] = test system: 5-LOX; details: read-out: IC50 for inhibition of 5-LOX; ref 10 (Pein et al); cited from earlier work
[3] = test system: COX-2-mediated PGE2 in A549 cells; assay: COX-2 activity in intact-cell assay, IL-1β-stimulated A549 cells; assay type: cell-based, human; details: read-out: IC50 for inhibition of COX-2-mediated PGE2; IL-1β-stimulated A549 epithelial cells; 5 μM AA
[4] = test system: LTB4 in cells; details: read-out: IC50 for inhibition of LTB4 in cells; ref 10 (Pein et al); cited from earlier work
[5] = molecular target: T1, human recombinant 5-LOX (Homo sapiens, UniProt P09917); assay: 5-LOX activity, ferrous oxidation-xylenol orange; assay type: biochemical
T1 sequence (P09917 1-674): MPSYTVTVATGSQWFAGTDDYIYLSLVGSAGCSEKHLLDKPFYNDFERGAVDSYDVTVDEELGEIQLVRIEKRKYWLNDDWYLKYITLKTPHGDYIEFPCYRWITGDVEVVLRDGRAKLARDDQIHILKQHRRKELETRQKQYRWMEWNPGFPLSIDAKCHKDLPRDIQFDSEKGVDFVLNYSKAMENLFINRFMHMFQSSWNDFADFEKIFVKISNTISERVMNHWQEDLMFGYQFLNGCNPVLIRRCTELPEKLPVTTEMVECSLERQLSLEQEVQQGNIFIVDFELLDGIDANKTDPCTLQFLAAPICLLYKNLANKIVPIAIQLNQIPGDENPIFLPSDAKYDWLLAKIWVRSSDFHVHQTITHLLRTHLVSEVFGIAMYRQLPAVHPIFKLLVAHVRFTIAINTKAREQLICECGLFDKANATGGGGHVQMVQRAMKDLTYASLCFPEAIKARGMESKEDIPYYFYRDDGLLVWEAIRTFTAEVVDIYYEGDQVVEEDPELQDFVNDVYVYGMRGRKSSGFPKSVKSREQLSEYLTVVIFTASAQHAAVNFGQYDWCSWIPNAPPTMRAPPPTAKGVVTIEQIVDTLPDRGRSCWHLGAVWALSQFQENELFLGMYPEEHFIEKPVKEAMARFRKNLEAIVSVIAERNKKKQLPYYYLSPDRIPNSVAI

[6] = test system: LTB4 formation in differentiated HL-60 cells; assay: LTB4 formation in stimulated neutrophil-like differentiated HL-60 cells; assay type: cell-based, human; details: for Effect on THAP-stimulated LTB4 (in words): at up to 50 μM, not shown
[7] = molecular target: human recombinant COX-1 (Homo sapiens, UniProt P23219); assay: COX-1 activity assay using purified enzyme; assay type: biochemical
[8] = molecular target: T1, human recombinant 5-LOX; assay: 5-LOX enzyme kinetics; assay type: biochemical; details: for Nature of inhibition of 5-LOX: Lineweaver-Burk double reciprocal plot
[9] = test system: 5-LOX translocation in differentiated HL-60 cells; details: cited from earlier work
[10] = substrate: CCCCC/C=C\C/C=C\C/C=C\C/C=C\CCCC(=O)O; assay: 5-LOX enzyme kinetics; assay type: biochemical, human; details: other: substrate AA 5–50 μM; oxygen consumption; pH 7.4

Chain of human recombinant COX-1 (P23219 24-599): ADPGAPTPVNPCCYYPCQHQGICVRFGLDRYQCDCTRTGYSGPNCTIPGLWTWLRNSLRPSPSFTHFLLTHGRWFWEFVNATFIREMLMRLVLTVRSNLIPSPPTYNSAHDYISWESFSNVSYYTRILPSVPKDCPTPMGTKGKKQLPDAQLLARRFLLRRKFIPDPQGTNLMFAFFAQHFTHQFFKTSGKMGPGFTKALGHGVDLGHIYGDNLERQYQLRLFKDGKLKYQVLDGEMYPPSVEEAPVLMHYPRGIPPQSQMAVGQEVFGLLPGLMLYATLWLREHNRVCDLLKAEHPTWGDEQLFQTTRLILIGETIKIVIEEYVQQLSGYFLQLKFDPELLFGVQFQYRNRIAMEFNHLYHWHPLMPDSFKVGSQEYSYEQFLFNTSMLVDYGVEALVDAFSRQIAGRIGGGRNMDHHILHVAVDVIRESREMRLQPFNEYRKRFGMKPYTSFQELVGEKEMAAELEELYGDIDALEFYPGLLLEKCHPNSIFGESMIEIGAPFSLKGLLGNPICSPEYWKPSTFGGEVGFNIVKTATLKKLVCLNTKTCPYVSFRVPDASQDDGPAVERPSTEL

C/C(=C\CC/C(C)=C/CC[C@]1(C)CCc2cc(O)cc(C)c2O1)CC/C=C(\C)C(=O)O [δTE-13’-COOH, δTE-13’-carboxychromanol]
Impact on THAP-induced 5-LOX translocation (in words) [1]: did not show any significant impact
IC50 [3]: 2.5 to 5 µM
IC50 [4]: ~260 nM

Cc1c(O)cc2c(c1C)OC(C)(CCC(=O)O)CC2 (stereo not drawn) [γ-CEHC, 2-(β-carboxyethyl)-6-hydroxychroman]
IC50 [5]: > 50 µM

CC(C)=CCC/C(C)=C/CC/C(C)=C/CC[C@]1(C)CCc2cc(O)cc(C)c2O1 [δTE, δ-tocotrienol]
Impact on THAP-induced 5-LOX translocation (in words) [1]: did not show any significant impact
Effect on A23187-stimulated LTB4 (in words) ([6]; neutrophil-like HL-60 cells, data not shown): inhibited
IC50 [7]: 1000 to 2500 nM
IC50 [5]: 4.3 µM
Ki [8]: 2200 nM
Nature of inhibition of 5-LOX [8]: competitive inhibitor

Cc1c(O)cc2c(c1C)O[C@](C)(CCC[C@H](C)CCC[C@H](C)CCCC(C)C)CC2 [γT, γ-tocopherol]
Effect on THAP-stimulated LTB4 (in words) [6]: no significant effect
IC50 [7]: 1000 to 2500 nM

Cc1cc(O)cc2c1OC(C)(CCCC(C)CCCC(C)CCCC(C)C(=O)O)CC2 (centres unmarked) [δT-13’-COOH, δT-13’-carboxychromanol]
Impact on THAP-induced 5-LOX translocation (in words) [1]: did not show any significant impact
IC50 [3]: 2.5 to 5 µM
Nature of inhibition of 5-LOX [8]: competitive inhibitor

CC(C)=CCC/C(C)=C/CC/C(C)=C/CC[C@]1(C)CCc2cc(O)c(C)c(C)c2O1 [γTE, γ-tocotrienol]
Effect on A23187-stimulated 5-LOX translocation (in words) [9]: modestly blocked
Impact on THAP-induced 5-LOX translocation (in words) [1]: did not show any significant impact
IC50 [7]: 1000 to 2500 nM
IC50 [5]: 4.3 µM

Cc1cc(O)cc2c1O[C@](C)(CCC[C@H](C)CCC[C@H](C)CCCC(C)C)CC2 [δT, δ-tocopherol]
Effect on THAP-stimulated LTB4 (in words) [6]: no significant effect

Cc1c(C)c2c(c(C)c1O)CC[C@@](C)(CCC[C@H](C)CCC[C@H](C)CCCC(C)C)O2 [αT, α-tocopherol]
IC50 [7]: ~12000 nM

B1: human recombinant 5-LOX (Homo sapiens) (protein)
chain: T1 sequence (P09917 1-674)
Km [10]: 2.1 µM
